{"source": "patent US6586443B1", "about": "“Method of treating multiple sclerosis” (priority 1986, dated 2003)", "key": {"[1]": {"details": "recent press reports; cited from earlier work"}, "[2]": {"system": "genital herpes (herpes simplex virus (HSV) type No. 2)", "assay": "case report: low dose naltrexone in chronic genital herpes", "format": "in vivo, human", "method": "A person has had genital herpes for 13 years, experiencing a severe painful attack with several lesions for the 4-5 days preceding each menstrual period during most of that time. They were started on low dose naltrexone (1.75 mg per day at bedtime). […] Ten months later the dosage was increased to 2.75 mg/day also taken at bedtime. In the entire period of naltrexone treatment covering a number of months, they have had only two attacks each occurring 2-3 weeks after they ran out of naltrexone and interrupted the treatment temporarily."}, "[3]": {"assay": "case report: low dose naltrexone in multiple sclerosis", "format": "in vivo, human", "details": "person", "method": "This gradually cleared over a two month period. […] This gradually cleared. An attack of transverse myelitis at the lower thoracic level occurred four months later, their third attack in eight months. As they were recovering from this attack, they started on naltrexone, 1.75 mg per day at bedtime. […] This attack involved weakness and numbness of the left arm."}, "[4]": {"system": "Mu and Delta opiate receptor sites", "details": "generally rated; cited from earlier work"}}}
{"molecule": "Nc1nc2c(ncn2COCCO)c(=O)[nH]1", "note": "[acyclovir]", "values": [{"measurement": "effectiveness in treating CFS compared with placebo", "setting": "[1]", "result": "no more effective than a placebo"}]}
{"molecule": "O=C1CC[C@@]2(O)[C@H]3Cc4ccc(O)c5c4[C@@]2(CCN3CC2CC2)[C@H]1O5", "note": "[naltrexone]", "values": [{"measurement": "number of genital herpes attacks in the entire period of naltrexone treatment", "setting": "[2]; 1.75 then 2.75 mg/day at bedtime, each attack 2-3 weeks after treatment was temporarily interrupted", "result": "two"}, {"measurement": "effect on genital herpes attacks after start of treatment", "setting": "[2]; person, 1.75 mg per day at bedtime, oral", "result": "attacks immediately stopped"}, {"measurement": "multiple sclerosis attacks after start of naltrexone", "setting": "[3]; 1.75 mg per day at bedtime, three attacks in eight months before treatment", "result": "only subsequent attack in the intervening period of many months occurred one year later, three weeks after they voluntarily discontinued naltrexone"}, {"measurement": "multiple sclerosis attacks after resuming naltrexone", "setting": "[3]; low dose naltrexone resumed after voluntary discontinuation", "result": "no attacks since"}, {"measurement": "Mu blocking action relative to Delta blocking action", "setting": "[4]", "result": "about ten"}]}
